According to article PMC10510511, “Dose–Response Activity-Based DNA-Encoded Library Screening” (ACS Medicinal Chemistry Letters, 2023):
“Also recorded” adds a separate entry of the source.

Assays:
factor Xa (FXa) [1] = target: T1, factor Xa (FXa) (Homo sapiens, UniProt P00742); assay: Biochemical assay for FXa hit validation (fluorogenic 5-FAM/QXL-520 substrate, microplate); conditions: for Maximum inhibition (%) / IC50: FXa; for IC50: 30 min preincubation, 25 °C, 4 parameter logistic fit
T1 construct: purchased R&D Systems, Minneapolis, MN
Protocol: Biochemical Assay for FXa Hit Validation […]
plate assay buffer). Compound dilutions (2.5 µL) were added to FXa (90 nM, 5 µL) in 384-well black-bottom microplates (Corning Scientific, Corning, NY) in triplicate and […]
(§1) incubated (30 min, 25 °C). […]
added and reaction progress was monitored immediately (λex = 483 nm,λem = 530 nm, 25 °C, CLARIOStar Plus, BMG LABTECH, Ortenberg, Germany). The percent activity was taken as the slope of the fluorescence increase over time (1–10 min) relative to that of a vehicle control. IC50 values were determined by fitting the data to a 4 parameter logistic model using nonlinear regression. […]

factor Xa (FXa) [2] = target: T1, factor Xa (FXa); assay: FXa dose-response activity-based DEL screening in droplets, hit replicate count by sequencing; format: biochemical; conditions: for k-class (30% UV): FXa screen at 30% UV intensity; for k-class (100% UV): FXa screen at 100% UV intensity
Protocol: FXa Library Screening in Droplets
DEL screening for FXa inhibitors was performed in droplets as previously described,4,8 with modifications. After ligating the closing primer, the library was prepared for droplet screening by exchanging into assay buffer, filtering through a 20 µm Celtrics filter, filter-ing through a previously described microfluidic device,4 and counting a dilution with a hemocytometer to determine bead density. AQ1 input contained fluorogenic FXa peptide substrate (6 µM), internal standard 5(6)-TAMRA (2 µM), DEL beads (∼1500 beads/µL), and a PTFE-encapsulated magnet (to agitate beads periodically; 3 mm dia., V&P Scientific, Inc., San Diego, CA) in FXa droplet assay buffer. AQ2 contained FXa (3.8 ng/µL,∼90 nM) in FXa droplet assay buffer.
OIL2 and OIL3 were neat Novec™ 7500.
UV dosing was delivered through a custom fiber optic cable7 controlled through Labview software (National Instruments, Austin, TX). Slight modifications were made to the pre-viously described confocal LIF detection system and LabVIEW code. 3,4 Briefly, droplet […]
(§2) fluorescence emission was detected by photon counting PMTs (H7828, Hamamatsu, Mid-dlesex, NJ) using a custom two-channel (520 and 570 nm) confocal LIF microscope with […]
(§3) code written in house collected signal data and determines droplet sorting decisions. The […]
(§4) Instruments), and binned into packets of counts (∆t = 0.1 ms). Median-filter smoothing (window width = 3) was applied to the signal in real-time. Droplet signal regions were identified by the 570-nm channel signal (countsn> 200) and 520-nm channel signal maxima (max = countsn−1 when countsn< countsn−1).
A dynamic sorting threshold was calculated in real-time to identify “hit droplets” with reduced 520-nm channel fluorescence. The dynamic threshold was calculated as µ - 4.5σ, where µ andσ were the mean and standard deviation of the last 1000 droplets’ fluorescence values, respectively. Hit droplets were excluded from the fluorescence values used to calculate population mean and standard deviation. […]
(§5) DNA sequence pattern matching, aggregation by bead barcode, and unique molecular identifier (UMI) filtering were previously described. 3–5 Sequences with a UMI count≤ 5 were discarded. UV doses associated with hit sequences were filtered using the sequencing barcode (Table S5) introduced during library amplification. Of the remaining sequences, compound replicates (k class) were determined by taking the sum of the sequences having the same synthesis encoding region but distinct bead barcodes.

autotaxin (ATX) [3] = target: T2, autotaxin (ATX) (Homo sapiens, UniProt Q13822); assay: ATX dose-response activity-based DEL screening in droplets, hit replicate count by sequencing; format: biochemical; conditions: for k-class (20% UV): ATX screen at 20% UV intensity; for k-class (100% UV): ATX screen at 100% UV intensity
T2 construct: purchased Echelon Biosciences, Salt Lake City, UT
Source text: as §2, §3, §4
A dynamic sorting threshold was calculated in real-time to identify “hit droplets” with reduced 520-nm channel fluorescence. The dynamic threshold was calculated as µ - 4.5σ, where µ andσ were the mean and standard deviation of the last 1000 droplets’ fluorescence values, respectively. Hit droplets were excluded from the fluorescence values used to calculate population mean and standard deviation. When a hit droplet was detected (droplet fluorescence< µ – 4.5σ counts), LabVIEW output a TTL pulse from the DAQ […]
triggering a square wave pulse output (0–7.5 V, 10 kHz, 300 cycles) that was amplified […]
NY) and conducted through luer-lok needle-fitted and microbore tygon tubing filled with liquid metal (gallium:indium:tin alloy 62:22:16 (w%), Alfa Aeser) into a microfabricated […]
ATX Library Screening in Droplets
The ATX droplet screening assay was performed similarly to the FXa assay, but with ATX assay reagents. This was a modification of previously described protocols.4 AQ1 input contained fluorogenic ATX substrate FS-3 9 (10 µM), internal standard 5(6)-TAMRA (5 µM), […]
excised, eluted (C&S buffer, 100 µL, 100 rpm, ON), and pooled for Illumina sequencing at the UCI genomics high throughput facility (MiSeq v2 Nano or MiSeq v2 Micro, paired end).
as §5, with “barcodes. […]” for “barcodes.”
(§6) 384-well black-bottom microplates (Corning Scientific, Corning, NY) in triplicate and […]
as §1

autotaxin (ATX) [4] = target: T2, autotaxin (ATX); assay: Biochemical assay for ATX hit validation (FS-3 substrate, microplate); conditions: for Maximum inhibition (%) / IC50: ATX; for IC50: relative IC50, 30 min preincubation, 25 °C, 4 parameter logistic fit
Protocol: as §6, §1
Biochemical Assay for ATX Hit Validation […]
plate assay buffer). Compound dilutions (2.5 µL) were added to ATX (100 nM, 5 µL) in 384-well black-bottom microplates (Corning Scientific, Corning, NY) in triplicate and incubated (30 min, 25 °C). FS-3 (20 µM, 2.5 µL) was added and reaction progress was monitored immediately (λex = 483 nm, λem = 530 nm, 25 °C, CLARIOStar Plus, BMG LABTECH). The percent activity was taken as the slope of the fluorescence increase over […]
time (1–10 min) relative to that of a vehicle control. IC50 values were determined by fitting the data to a 4 parameter logistic model using nonlinear regression. […]
Vmax = [S]KM(1 + [I]Ki ) + [S]. […]
v = Vmax(1 + [I]/Ki)[S]. (3)
Rearranging to express relative velocity (v/Vmax):
Vmax = [S](KM + [S])(1 + [I]/Ki). (4)

FXa = test system: FXa; set-up: method as in PMID 16161994; conditions: cited from earlier work

T1 sequence (P00742 235-488 limits assumed): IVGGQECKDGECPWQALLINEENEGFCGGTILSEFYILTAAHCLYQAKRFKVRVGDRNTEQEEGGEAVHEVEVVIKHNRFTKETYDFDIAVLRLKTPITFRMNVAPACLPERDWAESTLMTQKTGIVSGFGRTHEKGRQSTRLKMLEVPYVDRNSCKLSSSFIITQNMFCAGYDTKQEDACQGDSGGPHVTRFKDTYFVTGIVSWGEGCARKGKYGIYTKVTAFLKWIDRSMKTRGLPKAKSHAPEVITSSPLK
T1 sequence (P00742 41-179 partner limits assumed): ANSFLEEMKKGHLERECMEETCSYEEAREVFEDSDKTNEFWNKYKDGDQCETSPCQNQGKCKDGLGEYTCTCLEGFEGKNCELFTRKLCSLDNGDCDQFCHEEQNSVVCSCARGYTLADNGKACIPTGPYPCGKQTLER

Compound: NC(=O)[C@@H](Cc1csc2ccccc12)NC(=O)c1ccc(N2CCCC2=O)cc1 [Hit 1a]
- Maximum inhibition (%) (factor Xa (FXa) [1]): 93%
- IC50 (factor Xa (FXa) [1]): 4.2 ± 0.1 µM
- k-class (30% UV) (factor Xa (FXa) [2]): 14
- k-class (100% UV) (factor Xa (FXa) [2]): 4

Compound: NC(=O)[C@@H](Cc1csc2ccccc12)NC(=O)c1ccc(N2CCOCC2)cc1 [Hit 1b]
- Maximum inhibition (%) (factor Xa (FXa) [1]): 85%
- IC50 (factor Xa (FXa) [1]): 7.4 ± 0.3 µM
- k-class (30% UV) (factor Xa (FXa) [2]): 9
- k-class (100% UV) (factor Xa (FXa) [2]): 4

Compound: NC(=O)[C@@H](Cc1c[nH]c2ccccc12)NC(=O)c1ccc(N2CCCC2=O)cc1 [Hit 2a]
- Maximum inhibition (%) (factor Xa (FXa) [1]): 95%
- IC50 (factor Xa (FXa) [1]): 9 ± 0.3 µM
- k-class (30% UV) (factor Xa (FXa) [2]): 9
- k-class (100% UV) (factor Xa (FXa) [2]): 6

Compound: NC(=O)[C@@H]1CCCN1C1CCN(C(=O)c2cn3cc(Cl)ccc3n2)CC1 [Hit 3a]
- Maximum inhibition (%) (factor Xa (FXa) [1]): 28%
- IC50 (factor Xa (FXa) [1]): > 300 µM
- FXa inhibition (in words) (factor Xa (FXa) [1]; at 100 μM): weakly inhibited FXa
- k-class (30% UV) (factor Xa (FXa) [2]): 8
- k-class (100% UV) (factor Xa (FXa) [2]): 9

Compound: NC(=O)c1cccc(CNC(=O)c2ccc(Cl)s2)c1 [Hit 5a]
- Maximum inhibition (%) (factor Xa (FXa) [1]): 58%
- IC50 (factor Xa (FXa) [1]): 19 ± 2 µM
- k-class (30% UV) (factor Xa (FXa) [2]): 10
- k-class (100% UV) (factor Xa (FXa) [2]): 8

Compound: NC(=O)c1cccc(CNC(=O)c2csc(Cc3ccccc3)n2)c1 [Hit 12a]
- k-class (20% UV) (autotaxin (ATX) [3]): 4
- k-class (100% UV) (autotaxin (ATX) [3]): 8
- ATX inhibition (in words) (autotaxin (ATX) [4]): least potent
- Maximum inhibition (%) (autotaxin (ATX) [4]): 94%
- IC50 (autotaxin (ATX) [4]): 28 ± 14 µM

Compound: NC(=O)c1cccc(CNC(=O)[C@@H]2C[C@H]2c2ccccc2)c1 [Hit 12b]
- k-class (20% UV) (autotaxin (ATX) [3]): 2
- k-class (100% UV) (autotaxin (ATX) [3]): 3
- ATX inhibition (in words) (autotaxin (ATX) [4]): false positive; also recorded: did not inhibit ATX
- IC50 (autotaxin (ATX) [4]): > 300 µM

Compound: Cc1cccn2cc(C(=O)NC3c4ccccc4CCc4cc(OCC(N)=O)ccc43)nc12 (stereo not drawn) [Hit 13a]
- k-class (20% UV) (autotaxin (ATX) [3]): 0
- k-class (100% UV) (autotaxin (ATX) [3]): 3
- Maximum inhibition (%) (autotaxin (ATX) [4]): 57%
- IC50 (autotaxin (ATX) [4]): 6 ± 1 µM

Compound: NC(=O)COc1ccc2c(c1)CCc1ccccc1C2NC(=O)c1ccc(Cl)o1 (stereo not drawn) [Hit 13b]
- k-class (20% UV) (autotaxin (ATX) [3]): 0
- k-class (100% UV) (autotaxin (ATX) [3]): 3
- Maximum inhibition (%) (autotaxin (ATX) [4]): 26%
- IC50 (autotaxin (ATX) [4]): 6 ± 3 µM

Compound: NC(=O)Cn1c(=O)n(C2CCN(C(=O)c3ccc(Cl)cc3C(F)(F)F)CC2)c2ccccc21 [Hit 16a]
- k-class (20% UV) (autotaxin (ATX) [3]): 6
- k-class (100% UV) (autotaxin (ATX) [3]): 4
- ATX inhibition (in words) (autotaxin (ATX) [4]): inhibited ATX fully
- Maximum inhibition (%) (autotaxin (ATX) [4]): 91%
- IC50 (autotaxin (ATX) [4]): 7 ± 2 µM

Compound: NC(=O)Cn1c(=O)n(C2CCN(C(=O)c3cnn(CC4CCCCC4)c3)CC2)c2ccccc21 [Hit 16b]
- k-class (20% UV) (autotaxin (ATX) [3]): 4
- k-class (100% UV) (autotaxin (ATX) [3]): 2
- ATX inhibition (in words) (autotaxin (ATX) [4]): inhibited ATX fully
- Maximum inhibition (%) (autotaxin (ATX) [4]): 96%
- IC50 (autotaxin (ATX) [4]): 13 ± 2 µM

Compound: NC(=O)c1ccc2c(c1)CCN(C(=O)c1cnn(CC3CCCCC3)c1)C2 [Hit 17a]
- k-class (20% UV) (autotaxin (ATX) [3]): 7
- k-class (100% UV) (autotaxin (ATX) [3]): 6
- ATX inhibition (in words) (autotaxin (ATX) [4]): inhibited ATX fully
- Maximum inhibition (%) (autotaxin (ATX) [4]): 91%
- IC50 (autotaxin (ATX) [4]): 1 ± 0.3 µM
